The test system of data set [1] is restless legs syndrome patients. To be noted: 7.5 mg, cited from earlier work.
Data set [2] shares this test system. The data set is described as follows: Prior treatment history of the trial patients. The method, then: See also, Stiasny K., Oertel W. H., Schuiler P. (1998). Cabergoline in RLS, ENS, Nice, Abstract.
Efficacy was assessed by polysomnography and subjective ratings. […] At study entry all patients were comedicated with domperidone (20 mg TID) and five were still under levodopa therapy (400-800 mg).
Subjects. Nine patients (seven women and two men, mean age 54.1±8.7, range 38.1-64.3 years) with idiopathic RLS for 23.1±13.7 years (range 5-47 years) participated. […] At study entry five patients were on levodopa with dosages ranging from 400-800 mg. […] The remaining four patients were off any specific RLS medication during baseline investigation. […] At baseline conditions the physician considered the patients to be extremely ill (2), very ill (4) or markedly ill (3).

For data set [3] the following is noted: cited from earlier work.
For data set [4], the system named is restless legs syndrome patients. To be noted: cited from earlier work.
The test system is the same in data set [5]. As to conditions: cited from earlier work. This is another data set of the same source.
The test system is the same in data set [6]. As to conditions: in vivo; cited from earlier work.
The test system is the same in data set [7]. As to conditions: open clinical trials of opioids; cited from earlier work.

Where two headings read alike, the source gives them in different places.

As to `CC(C)C[C@H]1C(=O)N2CCC[C@H]2[C@]2(O)O[C@](NC(=O)[C@@H]3C=C4c5cccc6[nH]c(Br)c(c56)C[C@H]4N(C)C3)(C(C)C)C(=O)N12` [Bromocriptine], the “patients with subjective improvement in restlessness and paresthesia compared to placebo” value in data set [1] (1 to 3 hours prior to sleep, double blind crossover) is recorded as 5 of 6. The side effects entry in data set [1] (one patient) is “transient nasal stuffiness and lightheadedness”. Besides, in data set [2] (bromocriptine 5 mg, one patient), the “side effect under prior treatment” value was “severe arterial hypotension”.

Consider `N[C@@H](Cc1ccc(O)c(O)c1)C(=O)O` [L-dopa], for which the “benefit of previous levodopa therapy” value in data set [2] (all patients, standard or standard and slow release) is given as “partial benefit”. Also, in data set [3] (levodopa, regular release), the half-life was 2 to 4 h. Also, the “suppression of RLS (in words)” value in data set [4] (100 mg with carbidopa 10 mg, most cases) is reported as “completely suppresses RLS”. Also, the “rebound (augmentation) of PLMS in last part of the night” value in data set [4] (100 mg with carbidopa 10 mg) was “often observed”. Also, the rate of augmentation in data set [4] (12 week study, Callado-Seidel et al.) was 27%. Besides, the “patients with augmentation reporting 3 major symptoms of increased severity” value in data set [4] (22 RLS patients with augmentation) was 100%. In data set [4] (Allen and Earley, Sleep 1996), the “rate of augmentation in PLMS patients” value was 31% and the “rate of augmentation in RLS patients” value was 82%. Besides, the “RLS patients with augmentation requiring a medication change” value in data set [4] (Allen and Earley) was 50%. In data set [4] (Earley and Allen), the “patients who responded to levodopa” value is reported as 21 of 51. In addition, the “time until patients no longer respond well (tolerance)” value in data set [4] (L-Dopa or L-Dopa plus dopa-decarboxylase-inhibitor, usually) is on record as no more than 6 months. Further, the “patients reporting increased movement in other body parts” value in data set [4] (RLS patients with augmentation) is 7%. Further, the “tolerance (in words)” value in data set [4] (RLS) is given as “common”. The “reduction of RLS at bedtime and PLMS throughout the night (in words)” value in data set [4] (double-blind PSG study, administered twice at night) is on record as “significant reduction”. The “efficacy in RLS (in words)” value in data set [4] (with peripheral carboxylase inhibitor, 10:1 ratio) is “effective”.

Regarding `CCCN1C[C@H](CSC)C[C@@H]2c3cccc4[nH]cc(c34)C[C@H]21` [Pergolide], the half-life in data set [3] (pergolide) is 7 to 16 h. Moreover, in data set [5] (6 month open label trial), the “effect in patients who developed augmentation under levodopa” value is on record as “some effect”. Further, in data set [5] (Earley and Allen), the “patients who responded well to pergolide” value is recorded as 19 of 26 and the “pergolide patients with augmentation” value is 4 of 26. Further, in data set [5] (pergolide with low dose L-dopa), the side effects result was “orthostatic hypotension and gastrointestinal problems”. The “patients suffering from augmentation” value in data set [5] (pergolide, Earley and Allen) is 15%. The “augmentation under pergolide (in words)” value in data set [5] (two open trials, follow-up 6 to 28 and 2 to 39 months) was “to a lower degree and less severe”. The “clinical improvement (in words)” value in data set [5] (with low dose L-dopa, patients not responding to L-dopa alone) is reported as “clinical improvement”.

`NCC1(CC(=O)O)CCCCC1` [gabapentin]: the possible side effects entry in data set [6] is “dizziness, sleepiness, fatigue, increased appetite, and unsteadiness”.

Take `C=CCN1CC[C@]23c4c5ccc(O)c4O[C@H]2C(=O)CC[C@@]3(O)[C@H]1C5` [naloxone]: in data set [7], the “reversal by naloxone (in words)” value is “reversible”.

By half-life is commonly meant the time in which the quantity being followed falls by half.

The values above are taken from patent publication US6114326A, “Use of cabergoline in the treatment of restless legs syndrome” (priority 1999, dated 2000).
